In patent US5505922A, “Anesthetic pharmaceutical combination” (University of Maryland at Baltimore, priority 1995, dated 1996):
Where two headings read alike, the source gives them in different places.

Assays:
[1] = acutely, 250 mg per ml of lithium; cited from earlier work
[2] = tested on: desheathed ferret vagus nerves (C fibers); experiment: In vitro recording of electrically stimulated compound action potentials from desheathed ferret vagus nerves (depression of action potential); assay type: cell-based; conditions: for IC50: read-out: ED50 (the source's name); for shift in the dose/response curve: lithium Lockes versus sodium Lockes, FIGS. 1 to 4; for in vitro ED50 reduction relative to control values: lithium-containing versus sodium Lockes vehicle
Method: To test if replacement of lithium ions for sodium ions reduced the required local anesthetic dose, an in vitro experiment was performed, wherein the electrically stimulated compound action potentials were recorded from desheathed ferret vagus nerves, which are an enriched source of C fibers.
The ferret vagus nerves were removed bilaterally and were desheathed under a Zeiss dissecting microscope with a magnification of 2.5X. A single desheathed nerve was then placed in a chamber interlaced with electrodes for stimulating and recording action potentials. The central section of the nerve passes through the central well containing either buffer or drug in buffer.
The stimulation voltage was adjusted to provide maximal action potential. The stimulus duration was 0.5 milliseconds. Stimulation and recording parameters were programmed, and stimuli were presented at 2 second intervals. Five successive action potentials were averaged and stored as an estimate of action potential activity each minute. The intervening […] action potential were discarded.
Control nerves were bathed in a 100% sodium Locke's solution, synthesized in the manner set forth in Synthesis Example 1 above. Experimental nerves were bathed in lithium Locke's solution, comprising 35 mol Eq. % lithium, 65 mol Eq. % sodium Locke's solution, synthesized in the manner set forth in Synthesis Example 2 above.
The electrical stimuli were applied to one end of the nerve, while on the other end, the resulting action potential propagation was measured using an oscilloscope and the recording computer. Varying doses of mepivacaine were administered to the nerves so that dose/response curves could be constructed under both ionic conditions.
Following a period of equilibration in a buffer where control recordings are made, the well was emptied and a molar concentration of a test anesthetic was added. Various molar concentrations of mepivacaine, an amide type local anesthetic (Sterling-Winthrop Research Institute, Rensselear, N.Y.), and procaine, an ester type local anesthetic (Sigma Chemical Co., St. Louis, Mo.) were tested in both sodium and lithium Locke's buffer vehicles, as described above.
Compound action potentials having two distinct peaks, labeled as A and C peaks, are observed and were recorded at 2 second intervals. Five consecutive action potentials were recorded for each one minute time period over 30 minutes. At 30 minutes, the anesthetic was removed and the chamber was perfused with buffer. Recording was continued during this 30 minute period. The averaged data, collected every 2 minutes, was then analyzed to determine the slope of the action potential, the height of the action potential, the area under the curve of the action potential and the conduction velocity. This was done for both the A and C peaks.
The data were then plotted as percent of control versus time. Other molar concentrations were administered from the dose where there was no effect on the A peak, and to a dose where the action potential was depressed to zero.
Inspection of the data allowed recording of the maximal observed effect for each of the concentrations studied. This observed maximum (or an asymptotic value derived from an appropriate equation) was used to generate log-probit linear regressions of the dose versus the effect. This is accomplished by conversion of the percent effect to the corresponding probit value, conversion of the dose to its log10 and fitting a first degree polynomial to the resultant data by the method of least squares.
The 95% confidence band was calculated and plotted for the data. From the equations of the best fit line and the confidence bands, doses estimated to produce 50, 90 and 95% depression of the four parameters were calculated for both the A and C peaks of the action potentials.
Table 1 was prepared using the results of each of the concentrations onsets (T 85%). […]

[3] = tested on: tooth pulps of the central incisors of rabbits; experiment: In vivo electrically stimulated tooth pulp pain model (rabbit tooth pulp assay)
Method: To confirm the results of the in vitro experiments in vivo, an electrically stimulated tooth pulp pain model was used. The tooth pulps of the central incisors of rabbits were exposed using a high speed burr and dental drill.
Electrodes were inserted into the pulp chambers and the voltage required to elicit a lick/chew response was measured. The percentage analgesia was calculated from the following equation:
MPE=((TV-CV)/(10 V-CV))×100
wherein TV is the voltage after treatment; CV is the control voltage, and 10 V are the maximum volts applied.
The percent analgesia was recorded 0, 5, 10, 15, 30, 60, 120 and 180 minutes after injection.

[4] = control (sodium Lockes) buffer vehicle
[5] = in the lithium-containing buffer vehicle

SMILES	acute tolerability [1]	IC50 [2, 4] [µM]	IC50 [2, 5] [µM]	shift in the dose/response curve [2]	in vitro ED50 reduction relative to control values [2]	shift in the dose/response curves ([3]; lithium Lockes versus sodium Lockes, FIGS. 5 and 6)	in vivo ED50 reduction relative to standard sodium Lockes vehicle ([3]; lithium Lockes versus standard sodium Lockes vehicle)	ED50 ([3]; lithium present in the buffer vehicle) [%]	ED50 ([3]; without lithium (sodium Lockes)) [%]
[Li] [lithium]	well tolerated	–	–	–	–	–	–	–	–
Cc1cccc(C)c1NC(=O)C1CCCCN1C (stereo not shown) [mepivacaine]	–	420	270	not parallel and demonstrated that the effect of lithium was most pronounced at lower concentrations	reduced to half their control values	not parallel and demonstrated that the effect of lithium was most pronounced at lower concentrations	reduced to one third of its value	0.69	1.93
CCN(CC)CCOC(=O)c1ccc(N)cc1 [procaine]	–	540	190	not parallel and demonstrated that the effect of lithium was most pronounced at lower concentrations	reduced to half their control values	–	–	–	–
